From patent US11365215B2, “Method for preventing, improving, or treating inflammatory bowel disease” (Research & Business Foundation Sungkyunkwan University, priority 2015, dated 2022)
Peptide text beside a SMILES is read from it.

What was measured:
NF-κB = test: 5×NF-κB-Luc reporter luciferase assay in LPS-treated RAW 264.7 cells; format: cell-based; conditions: 100 nM for 30 minutes, LPS 100 ng/ml two hours
Procedure: Specifically, 5×NF-κB-Luc reporter plasmid was transfected into RAW 264.7 cells using Effectene (Qiagen, USA). The transfected cells were pretreated with 100 nM of compound 1.1 (SEQ ID NO: 2) for 30 minutes, and further treated with LPS (100 ng/ml) for two hours, and luciferase activity in the cells was measured (FIG. 4 depicts a graph showing relative inhibition activities of compound 1.1 (SEQ ID NO: 2) and compound 1.2 to NF-κB activation). When the cells were treated with compound 1.1 (SEQ ID NO: 2) and compound 1.2 according to the present invention, activation of NF-κB, which was induced by LPS, was inhibited (FIG. 4).
In addition, 5×NF-κB-Luc reporter plasmid was transfected into RAW 264.7 macrophage cells and treated with compounds of the present invention, as described above. After 24 hours of the transfection, the cells were pretreated with DMSO (control), compound 1.1 (SEQ ID NO: 2), reference compound 1 (SEQ ID NO: 16) (compound where palmitic acid is removed from compound 1.1 (SEQ ID NO: 2)), and smaducin-6 were treated at various concentrations of 100 pM, 1 nM, and 100 nM for 30 minutes, and then the cells were treated with 100 ng/ml of LPS for two hours.
(§1) Specifically, 5×NF-κB-Luc reporter plasmid, SBE-Luc reporter plasmid, and BRE-Luc reporter plasmid were individually transfected into Raw 264.7 macrophage cells. After 24 hours, the cells transfected with the NF-κB-Luc reporter plasmid were treated with 100 ng/mL of LPS, the cells transfected with the SBE-Luc reporter plasmid were treated with 5 ng/mL of TFG-β1, and the cells transfected with the BRE-Luc reporter plasmid were treated with 100 ng/mL of BMP6 for two hours.
As described in Example 2.3, 5×NF-κB-Luc reporter plasmid was transfected into RAW 246.7 macrophage cells. After 24 hours, the cells transfected with NF-κB-Luc reporter plasmid were pretreated with compound 1.1 (SEQ ID NO: 2) (100 nM), interleukin-1-receptor-associated-kinase-1/4 inhibitor (IRAK1/4) inhibitor (25 μM, CAS 509093-47-4), and smaducin-6 (100 nM) for 30 minutes, and then further treated with LPS (100 ng/ml) for 2 hours. Subsequently, luciferase activities in the cells were measured.

septicemia (CLP model) = test: Cecal ligation and puncture (CLP) septicemia model; format: in vivo; conditions: CLP mice; hypodermic 1 mg/kg, 2 hours after CLP, 12 hour intervals, three times
Description: To confirm the effects of compound 1.1 (SEQ ID NO: 2) on septicemia, 10 mice in each group (7-week old, male) were anesthetized, and thereafter, the appendicies were exposed by incision of abdomen. The lower portion of ileocecal valve of the exposed appendix was tied and a single hole was made by using a 22 gage syringe needle. The treated appendix was reinserted into the abdominal cavity, and grafted using thread to obtain a septicemia-induced mice model (cecal ligation and pucture model, CLP model). Experimental methods were described in EMBO Mol Med. (2015) Mar. 12; 7(5):577-92, which is incorporated herein by reference.
Compound 1.1 (SEQ ID NO: 2) was hypodermically injected to the treated mice at dose of 1 mg/kg, after 2 hours from the CLP procedure, with 12 hour intervals, three times. As reference control, smaducin-6 was hypodermically injected at dose of 12 mg/kg as same method used for compound 1.1 (SEQ ID NO: 2). Survival rates of the mice from each group were measured (FIG. 29). Sham comparative group was not treated after incision of abdomen and anastomosis, CLP+PBS comparative group was treated with phosphate buffered saline (PBS) instead of drug compound after cecal ligation and puncture model was prepared. […]

interleukin-6 = test: Suppression of LPS-induced IL-6 expression in RAW 264.7 macrophage cells (RT-PCR, Real-Time PCR); format: cell-based
Procedure: First, RAW 264.7 macrophage cells were purchased from American Type Culture Collection (ATCC; Manassas, Va.), and were culture at a temperature of 37° C., under 5% CO2 atmosphere, using 10% Fetal Bovine Serum (FBS) and Dulbecco's Modified Eagle's Medium (DMEM) containing 1% penicillin/streptomycin.
The cultured RAW 264.7 macrophage cells were divided into a 6-well cell culture plate. After 24 hours, the cells were pretreated with compound 1.1 (SEQ ID NO: 2), compound 1.2, and smaducin-6, respectively, in a concentration of 100 nM for 30 min, and further treated with lipopolysaccharides (LPS) for two hours. These cells were collected using TRIzol® and the RNA was extracted. From 2 μg of the extracted RNA, cDNAs (complementary deoxyribonucleic acids) were synthesized and reverse transcription polymerase chain reactions (RT-PCR) and real-time polymerase chain reactions (Real-Time PCR) were performed. Samples from the RT-PCR were confirmed by electrophoresis on agarose gels and quantified using densitometer. A glyceraldehyde 3-phosphate dehydrogenase (GAPDH) gene was used as a loading control for the interleukin-6 gene.
RAW 264.7 macrophage cells were treated with varying concentrations of compound 1.1 (SEQ ID NO: 2) from 50 pM to 500 nM for 30 minutes, and treated with 100 ng/mL of LPS for two hours.

SBE (TFG-β1 signaling) = test: SBE-Luc reporter assay in Raw 264.7 cells treated with TFG-β1; format: cell-based; conditions: 5 ng/mL TFG-β1 two hours
Procedure: as §1

HRMEC cells = test: VEGF-induced tube formation in HRMEC cells; format: cell-based; conditions: HRMEC on Matrigel; 20 ng/ml VEGF 4 hours; 50 nM
Procedure: To evaluate the effect of compound 1.1 (SEQ ID NO: 2) on tube formation during angiogenesis, HRMEC cells ([…]) were cultured on Matrigel coated micro slides and treated with 20 ng/ml of VEGF for 4 hours to induce the tube formation. Simultaneously, for reference group, the cells were treated with DMSO, and for experimental group, the cells were treated with 50 nM of compound 1.1 (SEQ ID NO: 2) and 1 uM of calcein-AM. The cells were observed using fluorescence microscope.

[1] = system: DSS-induced chronic colitis; test: Histological analyses of colon villi and mucous membranes in DSS-induced chronic colitis model; format: in vivo, mice; conditions: 100 mpk

With `CCCCCCCCCCCCCCCC(=O)N1CCC[C@H]1C(=O)N1CCC[C@H]1C(=O)NCC(=O)N[C@@H](Cc1ccc(O)cc1)C(=O)O` [compound 1.1, (S)-3-(4-hydroxyphenyl)-2-(2-((S)-1-((S)-1-palmitoylpyrrolidine-2-carbonyl)pyrrolidine-2-carboxamido)acetamido)propanoic acid] (HELM PEPTIDE1{[CCCCCCCCCCCCCCCC(=O)[*:2]].P.P.G.Y}$$$$V2.0) the “inhibition of the activity of NF-κB induced by LPS, dose dependence” value (NF-κB; 100 pM, 1 nM) was “increased as dose of compound 1.1 (SEQ ID NO: 2) increased”, the “activation of NF-κB induced by LPS (luciferase activity)” value (NF-κB) was “inhibited” and the survival rate (septicemia (CLP model)) was 60%. For the same molecule, the IC50 (interleukin-6; Mus musculus, RAW264.7, 50 pM to 500 nM for 30 minutes, 100 ng/mL LPS two hours, read-out: concentration where the expression of interleukin-6 was suppressed to 50% or below (IC50)) was ~1.6 nM, the “expression of interleukin-6 induced by LPS treatment” value (interleukin-6; pretreated 100 nM for 30 min, LPS two hours, compared to untreated sample) was “suppressed” and the “activation of SBE induced by TFG-β1 treatment” value (SBE (TFG-β1 signaling)) was “not inhibited”. For the same molecule, the tube formation (HRMEC cells) was “suppressed tube formation”, the “histological damages of large intestinal tissues” value ([1]; DSS-induced chronic colitis model) was “alleviated” and the “recovery of the mucous membranes (Alcian blue)” value ([1]; in comparison to non-treated group and sulfasalazine 500 mpk) was “greater recovery of the mucous membranes”.
